The values below come from patent US20040005601A1, “Methods for targeting quadruplex DNA” (priority 2002, published 2004).

Each structure is given as a SMILES string.

Test [1] concerns CMYC. The test is described as follows: CMYC expression in Ramos Burkitt's lymphoma cell line (NHE III1 retained). It is filed as cell-based. As for the experimental part: (§1) The importance of the NHE III1 sequence in mediating the CMYC transcriptional inhibition by TMPyP4 was assessed. Two Burkitt's lymphoma cell lines with different translocation break points within the CMYC and immunoglobulin loci were analyzed, which are referred to as the Ramos cell line and the CA46 cell line. While the Ramos cell line retained the NHE III1 during the translocation, the CA46 cell line lost this element, together with the P1 and P2 promoters (FIG. 5A). When the NHE III1 element was deleted, as in the CA46 cell line, TMPyP4 had no effect on CMYC transcriptional activation.

In test [2] the test system is CMYC. Conditions: cited from earlier work.
The subject of a further test is G-quadruplex structures. Conditions: cited from earlier work.
The test system of test [3] is Pu27 chair quadruplex (CMYC NHE III1). The test is described as follows: Taq polymerase stop assay at 60° C. with Pu27 insert template. It is filed as biochemical. As for the experimental part:
The same wild-type and mutant sequences of the Pu27 were used in a Taq polymerase stop assay, which was described in Han et al., Nucl. Acids Res. 27: 537-542 (1999). This assay is a modification of that used by Weitzmann et al., J. Biol. Chem. 271, 20958-20964 (1996), and is also described below. A reaction mixture of template DNA (77-mer with a Pu27 or mutant Pu27 insert) (50 nM), Tris.HCl (50 mM), MgCl2 (10 mM), DTT (0.5 mM), EDTA (0.1 mM), BSA (60 ng), and 5′-end-labeled 18-mer primer (˜18 nM) was heated to 90° C. for 5 min and allowed to cool to ambient temperature over 30 min. Taq Polymerase (1 μl) was added to the reaction mixture, and the reaction was maintained at a constant temperature (45° C. for the mutant Pu27 comparison; 60° C. for the porphyrin comparison) for 30 min. (For the porphyrin comparison, following cooling to ambient temperature, the requisite amount of porphyrin solution was added to the reaction mixture and left at ambient temperature for 30 min prior to the addition of polymerase.) Following the addition of 10 μl stop buffer (formamide [20 ml], 1 M NaOH [200 μl], 0.5 M EDTA [400 μl], 10 mg bromophenol blue), the DNA fragments were separated with a sequencing gel (12%) and visualized on a phosphorimager. Adenine sequencing (indicated by “A” at the top of the gel) was performed using double-stranded DNA Cycle Sequencing System from Life Technologies. The general sequence for 77-mer template strands was TCCAACTATGTATAC-INSERT-[…], and the 1 8-mer primer had the sequence TAATACGACTCACTATAG.
To further determine whether this selectivity of TMPyP4 versus TMPyP2 for the chair conformation correlated with an effect on CMYC transcription, a Taq polymerase stop assay was performed at an elevated temperature (60° C.) to partially destabilize the arresting quadruplex structure in the presence of increasing concentrations of TMPyP2 and TMPyP4. […] This is in agreement with the differential effects of the two compounds on CMYC expression in vitro and sensitivity in vivo to tumors that overexpress CMYC (MX-1 and PC-3).

A further test relates to RET. Put plainly: RET RNA expression in MiaPaCa cells (RT-PCR). Type of test: cell-based, human. As to conditions: for downregulation of RET RNA expression: IC70 concentration. As to the method: The effects of two test molecules also were assessed for the RET quadruplex. MiaPaCa-2 (human pancreatic tumor) were obtained from ATCC and were cultured at 37° C./5% CO2 in RPMI medium (Cellgro) with 10% fetal bovine serum (FBS), 50 U/ml penicillin G sodium, and 50 U/ml streptomycin sulfate (Gibco/BRL). Cells were treated with TMPyP4 and telomestatin (for the latter molecule, see, e.g., Shin-ya et al., J. Am. Chem. Soc. 123:1262 (2001)) when they reached ˜50% confluency. MiaPaCa cells were first washed with 5 ml of sterile phosphate-buffered saline (PBS, Fisher Scientific). The PBS was aspirated from the cells by vacuum, and replaced with 5 ml of Opti-MEM medium (Gibco-BRL) containing 6 μl Lipofectin (Invitrogen). Compounds then were added to the medium. Cells were allowed to grow at 37° C./5% CO2 for 6 hours to allow for transfection, and the medium was replaced with normal growth medium. […] The trypsin was neutralized with an equal volume of culture medium, the cells were then pelleted from this mixture by centrifugation at 500×gravity, the supernatant was aspirated, and the pellet was washed in PBS, recentrifuged, and frozen at −80° C.
RET RNA then was extracted from the cells. Cell pellets were thawed and resuspended in 400 μl of a buffer from a commercially available kit (i.e., Buffer RA1 from the NucleoSpin RNA II Kit (Clontech)). Total cellular RNA extraction was performed according to the manufacturer's protocol. Reverse transcription was performed to convert mRNA (i.e., polyadenylated RNA) to cDNA, and RET-specific primers were used in PCR to amplify RET message.

For another test, the system named is Pu27 chair G-quadruplex. The test is described as follows: Porphyrin photocleavage of Pu27 chair quadruplex. Type of test: binding. Conditions: exposure to light. An excerpt:
The two quadruplex conformations of Pu27 were contacted with compounds known to bind quadruplex structures. Specifically, the two conformations were contacted with TMPyP4 and TMPyP2 (FIG. 4A) to further confirm the biologically relevant quadruplex conformation (FIGS. 4B or 4C). It has been shown that both TMPyP4 and TMPyP2 catalyze the oxidation of DNA upon exposure to light, which results in DNA strand breakage in proximity to the binding sites (Han et al., J. Am. Chem. Soc. 123: 8902-8913 (2001)).
An identical cleavage pattern was produced by both compounds for the basket quadruplex (FIG. 4B). DNA damage was centered on the constituent guanines of the six-base bridging loop, inferring that both porphyrins are able to bind to this region, but in a nonspecific way that is neither intercalating nor end-stacking (FIG. 4A).

In test [4] the test system is RET quadruplex. The test is described as follows: Stabilization of RET quadruplex structure (polymerase arrest / chemical footprinting). It is filed as biochemical. The text has this: (§2) Nucleic acids in a chair conformation often have similar but not identical structures when compared to one another and differences can manifest in loop size and nucleotide sequence, quadruplex geometry, quadruplex stability, the number of alternative chair structures for a given nucleotide sequence, and chemical reactivity, and binding of other molecules. Polymerase arrest assays and chemical footprinting studies applied to the CMYC chair quadruplex structure as described hereafter also were applied to nucleotide sequences upstream of the PDGFA and RET genes. It was determined that the NHE regions 5′ of the RET and PDGFA genes formed chair quadruplex structures that regulated transcription. FIG. 6A depicts a generalized quadruplex chair structure formed in the CMYC, PDGFA, and RET regulatory regions. In this chair structure, CMYC and RET have two stable tetrads and PDGFA has three stable tetrads. The N1 loop for CMYC is TG, for RET is GCG, and for PDGFA is CG. The N2 loop for CMYC is GAG, for RET is GCG, and for PDGFA is GCG. The N3 loop for CMYC is TG, for RET is GCG, and for PDGFA is CG (form A) or AG (form B). The different forms of the PDGFA quadruplex are depicted in FIG. 6C and the RET quadruplex structure is depicted in FIG. 6B. […]

Test [5] has as its system RET quadruplex. Put plainly: Photo-induced cleavage of the RET quadruplex. It is filed as binding.
Test [6] has as its system CMYC. Put plainly: CMYC transcription in CA46 Burkitt's lymphoma cell line (NHE III1 deleted). As to conditions: NHE III1 element deleted. It is filed as cell-based. As for the experimental part: as §1
For the next test, the system named is PDGFA quadruplex. Put plainly: Stabilization of PDGFA quadruplex structure (polymerase arrest / chemical footprinting). It is filed as biochemical.
Description: as §2

The next test deals with CMYC quadruplex. The test is described as follows: Stabilization of CMYC quadruplex structure (polymerase arrest / chemical footprinting). Type of test: biochemical.
Description: as §2

The test system of test [7] is CMYC. The test is described as follows: CMYC expression in MiaPaCa cells. Type of test: cell-based, human. Conditions: 100 μM.

`C[n+]1ccccc1-c1c2nc(c(-c3cccc[n+]3C)c3ccc([nH]3)c(-c3cccc[n+]3C)c3ccc([nH]3)c(-c3cccc[n+]3C)c3nc1C=C3)C=C2` [TMPyP2]: the “effect on CMYC expression” value in the test on CMYC [1] is given as “not”. The “effect on CMYC transcription and protein expression” value in the test on CMYC [2] was “not”. Besides, the “binding to G-quadruplex structures” value in the test with G-quadruplex structures is reported as “bound with less affinity”. Moreover, in [3] (up to 20 μM compound, 60° C.), the “stabilization of the quadruplex arrest site” value was “only modestly stabilized”.

Take `C[n+]1ccc(-c2c3nc(c(-c4cc[n+](C)cc4)c4ccc([nH]4)c(-c4cc[n+](C)cc4)c4ccc([nH]4)c(-c4cc[n+](C)cc4)c4nc2C=C4)C=C3)cc1` [TMPyP4]: the “downregulation of RET” value in the test with RET (100 μM) is recorded as “did not significantly downregulate”. Further, in the test with Pu27 chair G-quadruplex, the “photocleavage pattern of chair G-quadruplex” value is recorded as “specific cleavage pattern”. Moreover, in the test with CMYC [1], the “effect on CMYC expression” value is reported as “lowered CMYC expression”. The “stabilization of RET quadruplex structure” value in the test with RET quadruplex [4] is recorded as “not the RET quadruplex”. In addition, the “binding site on RET quadruplex from photo-induced cleavage” value with RET quadruplex [5] is “binds above and below the two stable tetrads”. Further, the “effect on CMYC transcriptional activation” value with CMYC [6] was “no effect”. In addition, in the test on CMYC [2], the “effect on CMYC transcription and protein expression” value was “lowered”. The “stabilization of PDGFA quadruplex structure” value in the test on PDGFA quadruplex is reported as “stabilized”. In addition, the “binding to G-quadruplex structures” value in the test on G-quadruplex structures was “able to bind”. Further, in the test on CMYC quadruplex, the “stabilization of CMYC quadruplex structure” value was “stabilized”. The “downregulation of CMYC” value with CMYC [7] was “about 50%”. Also, the “polymerase arrest at quadruplex arrest site” value in [3] (0.5 μM compound, 60° C.) was about 65%; in [3] (5 μM compound, 60° C.), “virtually total arrest”. Moreover, the “conformation of Pu27 stabilized” value in test [3] (chair versus basket) is reported as “stabilizes the chair conformation over the basket conformation”.

As to `Cc1oc2nc1-c1nc(co1)-c1nc(co1)-c1nc(co1)-c1nc(co1)-c1nc(co1)C1=NC(CS1)c1nc-2c(C)o1` (centres unmarked) [telomestatin], the “downregulation of RET RNA expression” value with RET (after 48 hours) and in the test with RET (after 72 hours) was “at least 50%” in each case.
